Biological target: T1, F508del (Homo sapiens, UniProt P13569, DEL508-508)
T1 construct: expressed in transfected cells
Assay: Protocol 2: FRET membrane potential optical assay (VIPR), identification of correction compounds
Type: cell-based
Details: Table 3; compounds of Table 1 as modulators of CFTR activity; protocol not stated
In short: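 Mouse NIH3T3 cells, stable F508del; cpd 16 hrs, 37° C., serum-free; pos ctrl 27° C. 16 hrs. Rinse in Krebs Ringers, dye load, then add 10 μM forskolin + 20 μM genistein with Cl^−-free (gluconate) medium; depolarization by FRET voltage dyes.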

T1 sequence (P13569 with tags, fused parts or gaps DEL508-508): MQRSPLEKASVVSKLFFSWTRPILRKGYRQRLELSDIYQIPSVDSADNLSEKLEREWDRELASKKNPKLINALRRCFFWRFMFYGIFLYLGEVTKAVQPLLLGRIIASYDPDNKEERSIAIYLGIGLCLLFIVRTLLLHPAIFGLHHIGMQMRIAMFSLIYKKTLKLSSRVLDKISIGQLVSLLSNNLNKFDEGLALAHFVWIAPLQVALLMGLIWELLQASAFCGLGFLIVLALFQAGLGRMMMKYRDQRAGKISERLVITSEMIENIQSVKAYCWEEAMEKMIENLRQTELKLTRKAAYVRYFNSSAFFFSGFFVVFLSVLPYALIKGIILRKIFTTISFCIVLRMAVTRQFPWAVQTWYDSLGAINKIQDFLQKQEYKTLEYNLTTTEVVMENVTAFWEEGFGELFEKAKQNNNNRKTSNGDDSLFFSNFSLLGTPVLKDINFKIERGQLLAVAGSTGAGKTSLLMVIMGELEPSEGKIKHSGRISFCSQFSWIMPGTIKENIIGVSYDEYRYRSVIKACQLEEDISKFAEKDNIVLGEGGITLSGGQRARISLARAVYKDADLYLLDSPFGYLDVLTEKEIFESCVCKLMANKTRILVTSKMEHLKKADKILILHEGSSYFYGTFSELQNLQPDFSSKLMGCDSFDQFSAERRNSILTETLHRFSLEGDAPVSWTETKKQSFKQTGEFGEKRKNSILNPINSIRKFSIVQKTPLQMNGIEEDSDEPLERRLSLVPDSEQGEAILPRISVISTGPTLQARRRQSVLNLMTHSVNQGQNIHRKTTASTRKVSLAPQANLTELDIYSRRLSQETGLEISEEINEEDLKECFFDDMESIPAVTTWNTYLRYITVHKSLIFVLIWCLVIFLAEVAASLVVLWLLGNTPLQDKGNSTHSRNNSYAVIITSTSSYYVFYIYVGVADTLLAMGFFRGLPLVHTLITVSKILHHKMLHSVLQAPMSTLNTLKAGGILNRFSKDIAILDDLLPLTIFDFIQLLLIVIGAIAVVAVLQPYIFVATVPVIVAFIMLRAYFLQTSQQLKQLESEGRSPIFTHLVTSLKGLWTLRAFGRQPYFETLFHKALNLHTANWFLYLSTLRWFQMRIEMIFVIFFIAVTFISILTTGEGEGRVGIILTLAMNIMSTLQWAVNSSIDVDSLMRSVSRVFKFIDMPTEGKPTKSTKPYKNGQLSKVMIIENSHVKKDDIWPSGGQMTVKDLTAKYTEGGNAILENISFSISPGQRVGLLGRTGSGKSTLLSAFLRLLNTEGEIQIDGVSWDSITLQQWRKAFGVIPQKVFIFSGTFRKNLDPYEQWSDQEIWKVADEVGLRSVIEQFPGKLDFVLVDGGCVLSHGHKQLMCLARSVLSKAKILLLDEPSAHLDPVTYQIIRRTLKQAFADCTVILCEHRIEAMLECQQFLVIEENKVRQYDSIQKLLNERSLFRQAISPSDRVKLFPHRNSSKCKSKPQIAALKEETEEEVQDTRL

SMILES | EC30
CC(C)(C)c1ccc(C(=O)NS(=O)(=O)c2cccc(N)c2)c(-c2ccc(F)cc2)n1 [Compound 46, N-(3-aminophenyl)sulfonyl-6-tert-butyl-2-(4-fluorophenyl)pyridine-3-carboxamide] | ++ (“++” means between 3 uM and 10 uM)
Cc1cc(C)c(CN2Cc3ccccc3C2C(=O)NS(=O)(=O)c2ccccn2)c(C)c1 (stereo not drawn) [Compound 48, N-(2-pyridylsulfonyl)-2-[(2,4,6-trimethylphenyl)methyl]isoindoline-1-carboxamide] | ++ (“++” means between 3 uM and 10 uM)
COc1ccc(-c2cc(C(=O)NS(=O)(=O)c3ccccc3)n(Cc3c(C)cccc3C)n2)cc1 [Compound 49, N-(benzenesulfonyl)-2-[(2,6-dimethylphenyl)methyl]-5-(4-methoxyphenyl)pyrazole-3-carboxamide] | +++ (“+++” means <3 uM)
CCc1cccc(S(=O)(=O)NC(=O)c2ccc(C(C)(C)C)nc2-c2ccc(C)cc2)c1 [Compound 50, 6-tert-butyl-N-(3-ethylphenyl)sulfonyl-2-(p-tolyl)pyridine-3-carboxamide] | +++ (“+++” means <3 uM)
Cc1cc(C)c(Oc2nc(C(C)(C)C)ccc2C(=O)NS(=O)(=O)c2ccc[nH]c2=O)c(C)c1 [Compound 51, 6-tert-butyl-N-[(2-oxo-1H-pyridin-3-yl)sulfonyl]-2-(2,4,6-trimethylphenoxy)pyridine-3-carboxamide] | +++ (“+++” means <3 uM)
Cc1cc(C)cc(-c2nc(C(C)(C)C)ccc2C(=O)NS(=O)(=O)c2cccc(N)c2)c1 [Compound 52, N-(3-aminophenyl)sulfonyl-6-tert-butyl-2-(3,5-dimethylphenyl)pyridine-3-carboxamide] | +++ (“+++” means <3 uM)
Cc1ccc(Oc2nc(C(C)(C)C)ccc2C(=O)NS(=O)(=O)c2ccc[nH]c2=O)c(C)c1 [Compound 55, 6-tert-butyl-2-(2,4-dimethylphenoxy)-N-[(2-oxo-1H-pyridin-3-yl)sulfonyl]pyridine-3-carboxamide] | ++ (“++” means between 3 uM and 10 uM)
Cc1cccc(C)c1Cn1nc(C(C)(C)C)cc1C(=O)NS(=O)(=O)c1ccccc1F [Compound 57, 5-tert-butyl-2-[(2,6-dimethylphenyl)methyl]-N-(2-fluorophenyl)sulfonyl-pyrazole-3-carboxamide] | +++ (“+++” means <3 uM)
Cc1ccc(-c2nc(C(C)(C)C)ccc2C(=O)NS(=O)(=O)c2cccc(N)n2)cc1 [Compound 58, N-[(6-amino-2-pyridyl)sulfonyl]-6-tert-butyl-2-(p-tolyl)pyridine-3-carboxamide] | ++ (“++” means between 3 uM and 10 uM)
COc1c(C)cccc1S(=O)(=O)NC(=O)c1cc(C(C)(C)C)nn1Cc1c(C)cccc1C [Compound 59, 5-tert-butyl-2-[(2,6-dimethylphenyl)methyl]-N-(2-methoxy-3-methyl-phenyl)sulfonyl-pyrazole-3-carboxamide] | +++ (“+++” means <3 uM)
Cc1c(Cn2nc(C(C)(C)C)cc2C(=O)NS(=O)(=O)c2cccc3[nH]ccc23)cccc1C(F)(F)F [Compound 60, 5-tert-butyl-N-(1H-indol-4-ylsulfonyl)-2-[[2-methyl-3-(trifluoromethyl)phenyl]methyl]pyrazole-3-carboxamide] | +++ (“+++” means <3 uM)
Cc1cc(C)c(Cn2c(C(=O)NS(=O)(=O)c3cccc(N)c3)cc3ccc(C)cc32)c(C)c1 [Compound 62, N-(3-aminophenyl)sulfonyl-6-methyl-1-[(2,4,6-trimethylphenyl)methyl]indole-2-carboxamide] | +++ (“+++” means <3 uM)
Cc1cc(C)c(Cc2nn(C(C)(C)C)cc2C(=O)NS(=O)(=O)c2ccccc2)c(C)c1 [Compound 63, N-(benzenesulfonyl)-1-tert-butyl-3-[(2,4,6-trimethylphenyl)methyl]pyrazole-4-carboxamide] | +++ (“+++” means <3 uM)
Cc1cc(C)c(Cn2c(C(=O)NS(=O)(=O)c3ccncc3)cc3cc(Cl)ccc32)c(C)c1 [Compound 65, 5-chloro-N-(4-pyridylsulfonyl)-1-[(2,4,6-trimethylphenyl)methyl]indole-2-carboxamide] | ++ (“++” means between 3 uM and 10 uM)
Cc1ccc2c(c1)cc(C(=O)NS(=O)(=O)c1cccc(N)n1)n2Cc1c(C)cc(C#N)cc1C [Compound 67, N-[(6-amino-2-pyridyl)sulfonyl]-1-[(4-cyano-2,6-dimethyl-phenyl)methyl]-5-methyl-indole-2-carboxamide] | ++ (“++” means between 3 uM and 10 uM)

Results, then the compound that gave them:

EC30 | SMILES
+++ (“+++” means <3 uM) | Cc1cc(C)c(Oc2nc(C(C)(C)C)ccc2C(=O)NS(=O)(=O)c2cccc(O)c2)c(C)c1 [Compound 47, 6-tert-butyl-N-(3-hydroxyphenyl)sulfonyl-2-(2,4,6-trimethylphenoxy)pyridine-3-carboxamide]
++ (“++” means between 3 uM and 10 uM) | Cc1cc(C)c(Oc2nc(C3CC3)cc(C(F)(F)F)c2C(=O)NS(=O)(=O)c2cccc(N)n2)c(C)c1 [Compound 54, N-[(6-amino-2-pyridyl)sulfonyl]-6-cyclopropyl-4-(trifluoromethyl)-2-(2,4,6-trimethylphenoxy)pyridine-3-carboxamide]
+++ (“+++” means <3 uM) | COc1cccc(S(=O)(=O)NC(=O)c2ccc(C(C)(C)C)nc2Oc2c(C)cc(C)cc2C)c1 [Compound 56, 6-tert-butyl-N-(3-methoxyphenyl)sulfonyl-2-(2,4,6-trimethylphenoxy)pyridine-3-carboxamide]
+++ (“+++” means <3 uM) | CCOc1cccc(-c2ccc(C(=O)NS(=O)(=O)c3cccc(N)n3)c(Oc3c(C)cc(C)cc3C)n2)c1 [Compound 61, N-[(6-amino-2-pyridyl)sulfonyl]-6-(3-ethoxyphenyl)-2-(2,4,6-trimethylphenoxy)pyridine-3-carboxamide]
++ (“++” means between 3 uM and 10 uM) | Cc1cc(C)c(Oc2nc(-c3cnc(C(C)C)nc3)ccc2C(=O)NS(=O)(=O)c2cccc(N)n2)c(C)c1 [Compound 64, N-[(6-amino-2-pyridyl)sulfonyl]-6-(2-isopropylpyrimidin-5-yl)-2-(2,4,6-trimethylphenoxy)pyridine-3-carboxamide]
+++ (“+++” means <3 uM) | COCc1ccc(-c2ccc(C(=O)NS(=O)(=O)c3cccc(N)n3)c(Oc3c(C)cc(C)cc3C)n2)cc1 [Compound 66, N-[(6-amino-2-pyridyl)sulfonyl]-6-[4-(methoxymethyl)phenyl]-2-(2,4,6-trimethylphenoxy)pyridine-3-carboxamide]
+++ (“+++” means <3 uM) | Cc1cc(C)c(Oc2nc(C(C)(C)C)ncc2C(=O)NS(=O)(=O)c2cccc(N)c2)c(C)c1 [Compound 68, N-(3-aminophenyl)sulfonyl-2-tert-butyl-4-(2,4,6-trimethylphenoxy)pyrimidine-5-carboxamide]
+++ (“+++” means <3 uM) | COCc1cccc(-c2ccc(C(=O)NS(=O)(=O)c3cccc(N)n3)c(Oc3c(C)cc(C)cc3C)n2)c1 [Compound 69, N-[(6-amino-2-pyridyl)sulfonyl]-6-[3-(methoxymethyl)phenyl]-2-(2,4,6-trimethylphenoxy)pyridine-3-carboxamide]
+++ (“+++” means <3 uM) | Cc1cc(C)c(Oc2nc3c(C)cccc3cc2C(=O)NS(=O)(=O)c2cccc(N)n2)c(C)c1 [Compound 70, N-[(6-amino-2-pyridyl)sulfonyl]-8-methyl-2-(2,4,6-trimethylphenoxy)quinoline-3-carboxamide]

From patent publication US10758534B2 (Vertex Pharmaceuticals Incorporated, priority 2014, dated 2020)
